Results from article PMC7413254 (Nature Communications, 2020).

Key:
Type in all cases: cell-based
PfCRT^Dd2 [1] = target: T1, PfCRT^Dd2 (Plasmodium falciparum, UniProt Q9N623, A220S/I356T/K76T/M74I/N326S/N75E/Q271E/R371I); experiment: [3H]CQ uptake into Xenopus oocytes, cis-inhibition by unlabelled solute; details: PfCRTDd2 oocytes, background [3H]CQ accumulation subtracted, normalised to oocyte type control
How it was run: (§1)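 Using pH 5.5 ND96 at 27.5 °C, uptake is followed for 1.5 h, stopped with ice-cold buffer, and quantified as accumulated radioactivity per oocyte after SDS lysis.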

PfCRT^Ecu1110 [2] = target: T2, PfCRT^Ecu1110 (Plasmodium falciparum, UniProt Q9N623, A220S/I356L/K76T/N326D); experiment: as above; details: for PfCRT-mediated [3H]CQ transport, cis-inhibition (% PfCRTEcu1110 control): PfCRTEcu1110 oocytes, background [3H]CQ accumulation subtracted, normalised to oocyte type control; for [3H]CQ transport (% PfCRTEcu1110 control), cis-inhibition, PfCRTEcu1110: PfCRT-mediated component (background subtracted), sheet title says normalised to PfCRTDd2 control, mean ± SEM, SEM
T2 sequence (Q9N623 whole entry A220S/I356L/K76T/N326D): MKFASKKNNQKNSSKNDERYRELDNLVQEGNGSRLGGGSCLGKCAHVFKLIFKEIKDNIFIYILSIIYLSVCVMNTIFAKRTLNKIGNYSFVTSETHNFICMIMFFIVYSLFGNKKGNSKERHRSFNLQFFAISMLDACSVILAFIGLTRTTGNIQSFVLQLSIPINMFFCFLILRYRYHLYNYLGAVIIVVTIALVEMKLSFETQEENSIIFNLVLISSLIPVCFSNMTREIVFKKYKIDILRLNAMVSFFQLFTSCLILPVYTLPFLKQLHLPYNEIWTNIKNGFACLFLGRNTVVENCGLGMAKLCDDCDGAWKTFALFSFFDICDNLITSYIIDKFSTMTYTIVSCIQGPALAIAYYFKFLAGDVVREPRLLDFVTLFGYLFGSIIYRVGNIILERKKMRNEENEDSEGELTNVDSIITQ
How it was run: as §1

PfCRT^3D7 = PfCRT^3D7 (Plasmodium falciparum, UniProt Q8IBZ9); experiment: cell-based; details: PfCRT3D7 oocytes, normalised to oocyte type control
Sequence of PfCRT^3D7 (Q8IBZ9 59-398): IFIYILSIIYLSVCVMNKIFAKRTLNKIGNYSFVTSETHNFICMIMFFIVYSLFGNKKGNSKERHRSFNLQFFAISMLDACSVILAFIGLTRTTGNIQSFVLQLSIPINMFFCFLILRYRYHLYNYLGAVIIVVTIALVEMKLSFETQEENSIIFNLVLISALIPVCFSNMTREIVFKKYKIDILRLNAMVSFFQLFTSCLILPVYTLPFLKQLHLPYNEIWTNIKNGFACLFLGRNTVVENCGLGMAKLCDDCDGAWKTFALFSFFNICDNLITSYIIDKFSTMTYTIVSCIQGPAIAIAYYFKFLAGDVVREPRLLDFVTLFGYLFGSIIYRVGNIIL
How it was run: (§2)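 Oocytes (ten per treatment, ≥4 independent frogs/days) were preloaded by injecting VF-6 in 25 nL ND96 at pH 5.0, 5.5, 6.0 or 7.0, or Na^+-free choline buffer, then uptake run 1.5 h, 27.5 °C, ND96 pH 5.5 by default. Internal concentrations assumed ~400 nL oocyte volume.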

PfCRT^Dd2 [3] = target: T1, PfCRT^Dd2; experiment: cell-based; details: for PfCRT-mediated [3H]CQ transport, trans-stimulation (% PfCRTDd2 control): PfCRTDd2 oocytes, normalised to oocyte type control; for [3H]CQ transport (% PfCRTDd2 control), trans-stimulation, PfCRTDd2: PfCRT-mediated component (background subtracted), mean ± SEM, SEM
How it was run: as §2

PfCRT^Ecu1110 [4] = target: T2, PfCRT^Ecu1110; experiment: cell-based; details: for PfCRT-mediated [3H]CQ transport, trans-stimulation (% PfCRTEcu1110 control): PfCRTEcu1110 oocytes, normalised to oocyte type control; for [3H]CQ transport (% PfCRTDd2 control), trans-stimulation, PfCRTEcu1110: PfCRT-mediated component (background subtracted), sheet title says normalised to PfCRTDd2 control, mean ± SEM, SEM
How it was run: as §2

[5] = [test solute]i = 5 mM (intracellular)
[6] = [test solute]i = 45 mM (intracellular; 30 mM for some solutes due to solubility)
[7] = [test solute]i = 5 mM (injected)
[8] = [test solute]i = 45 mM (30 mM for some solutes due to solubility)

T1 sequence (Q9N623 whole entry A220S/I356T/K76T/M74I/N326S/N75E/Q271E/R371I): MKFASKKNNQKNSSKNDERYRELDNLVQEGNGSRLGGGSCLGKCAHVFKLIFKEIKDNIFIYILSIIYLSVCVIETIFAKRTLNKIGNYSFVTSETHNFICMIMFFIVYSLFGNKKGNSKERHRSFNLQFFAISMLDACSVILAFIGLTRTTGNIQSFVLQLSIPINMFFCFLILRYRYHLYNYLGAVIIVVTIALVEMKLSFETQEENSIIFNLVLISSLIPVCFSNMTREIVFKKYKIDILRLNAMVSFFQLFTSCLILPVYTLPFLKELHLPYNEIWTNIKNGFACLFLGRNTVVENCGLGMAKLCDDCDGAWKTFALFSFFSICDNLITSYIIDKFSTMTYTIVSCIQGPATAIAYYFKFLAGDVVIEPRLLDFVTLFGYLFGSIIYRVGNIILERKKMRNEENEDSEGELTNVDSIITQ

| Substance | PfCRT-mediated [3H]CQ transport, cis-inhibition (% PfCRTDd2 control) (PfCRT^Dd2 [1]; [test solute] = 0.5 mM) | PfCRT-mediated [3H]CQ transport, cis-inhibition (% PfCRTDd2 control) (PfCRT^Dd2 [1]; [test solute] = 1 mM) | PfCRT-mediated [3H]CQ transport, cis-inhibition (% PfCRTDd2 control) (PfCRT^Dd2 [1]; [test solute] = 2 mM) | PfCRT-mediated [3H]CQ transport, cis-inhibition (% PfCRTEcu1110 control) (PfCRT^Ecu1110 [2]; [test solute] = 0.5 mM) | PfCRT-mediated [3H]CQ transport, cis-inhibition (% PfCRTEcu1110 control) (PfCRT^Ecu1110 [2]; [test solute] = 1 mM) | PfCRT-mediated [3H]CQ transport, cis-inhibition (% PfCRTEcu1110 control) (PfCRT^Ecu1110 [2]; [test solute] = 2 mM) | PfCRT-mediated [3H]CQ transport, trans-stimulation (% PfCRT3D7 control) (PfCRT^3D7; [5]) | PfCRT-mediated [3H]CQ transport, trans-stimulation (% PfCRT3D7 control) (PfCRT^3D7; [6]) | PfCRT-mediated [3H]CQ transport, trans-stimulation (% PfCRTDd2 control) (PfCRT^Dd2 [3]; [5]) | PfCRT-mediated [3H]CQ transport, trans-stimulation (% PfCRTDd2 control) (PfCRT^Dd2 [3]; [6]) | PfCRT-mediated [3H]CQ transport, trans-stimulation (% PfCRTEcu1110 control) (PfCRT^Ecu1110 [4]; [5]) | PfCRT-mediated [3H]CQ transport, trans-stimulation (% PfCRTEcu1110 control) (PfCRT^Ecu1110 [4]; [6]) | [3H]CQ transport (% PfCRTEcu1110 control), cis-inhibition, PfCRTEcu1110 (PfCRT^Ecu1110 [2]; [test solute] = 1 mM) [% PfCRTEcu1110 control] | [3H]CQ transport (% PfCRTEcu1110 control), cis-inhibition, PfCRTEcu1110 (PfCRT^Ecu1110 [2]; [test solute] = 2 mM) [% PfCRTEcu1110 control] | [3H]CQ transport (% PfCRTDd2 control), trans-stimulation, PfCRTDd2 (PfCRT^Dd2 [3]; [7]) [% PfCRTDd2 control] | [3H]CQ transport (% PfCRTDd2 control), trans-stimulation, PfCRTDd2 (PfCRT^Dd2 [3]; [8]) [% PfCRTDd2 control] | [3H]CQ transport (% PfCRTDd2 control), trans-stimulation, PfCRTEcu1110 (PfCRT^Ecu1110 [4]; [7]) [% PfCRTEcu1110 control] | [3H]CQ transport (% PfCRTDd2 control), trans-stimulation, PfCRTEcu1110 (PfCRT^Ecu1110 [4]; [8]) [% PfCRTEcu1110 control] | [3H]CQ transport (% PfCRTEcu1110 control), cis-inhibition, PfCRTEcu1110 (PfCRT^Ecu1110 [2]; [test solute] = 0.5 mM) [% PfCRTEcu1110 control] |
| --- | --- | --- | --- | --- | --- | --- | --- | --- | --- | --- | --- | --- | --- | --- | --- | --- | --- | --- | --- |
| VHLTPEEK [VK-8] | 69 ± 3.1 | 63 ± 5.2 | 25 ± 0.3 | 64 ± 2.7 | 49 ± 3.1 | 41 ± 2.3 | 132 ± 3.2 | 166 ± 4.2 | 100 ± 3.4 | 98 ± 2.3 | 98 ± 2.9 | 100 ± 4.2 |  |  |  |  |  |  |  |
| HFDLS [HS-5] | 20 ± 0.1 | 9 ± 0.2 | 3.2 ± 0.1 | 20 ± 1.3 |  | 4.3 ± 0.1 | 139 ± 4.1 | 166 ± 3.2 | 100 ± 3.2 | 112 ± 1.1 | 120 ± 2.1 | 131 ± 1.8 | 3.0 ± 0.04 | 1.0 ± 0.06 | 100 ± 3.2 | 112 ± 1.1 | 36 ± 1.3 | 40 ± 1.4 |  |
| EFTPPVQ [EQ-7] | 40 ± 1.1 | 28 ± 0.2 | 17 ± 1.1 | 44 ± 1.4 | 32 ± 2.4 | 22 ± 2.9 | 136 ± 4.2 | 188 ± 4.7 | 96 ± 3.3 | 112 ± 3.2 | 129 ± 4.5 | 136 ± 2.7 | 10 ± 0.5 | 8.0 ± 0.03 | 96 ± 3.3 | 112 ± 3.2 | 39 ± 1.5 | 41 ± 1.8 | 14 ± 0.6 |
